The values that follow come from ChEMBL document CHEMBL1130536 (Bioorg Med Chem Lett, 1997).

The species named for assay [1] is Mus musculus. Put plainly: The compound was tested for Mean effective dose which protects the mice against seizures induced by Maximum electroshock (MES). The class given is functional.
The subject of assay [2] is Mus musculus. As to the kind of experiment: Mean effective dose that protects 50% of the mice against AMPA-induced lethality when it administered ip, 60 minutes prior to application of AMPA icv. The class given is functional.
Another assay deals with Glutamate NMDA receptor. As to the kind of experiment: Binding affinity against glycine binding site of NMDA receptor using [3H]glycine. It is filed as protein-complex assay, Rattus norvegicus.
The target in assay [3] is Glutamate receptor ionotropic AMPA (Homo sapiens, UniProt P42261+P42262+P42263+P48058).
Description: In vitro binding affinity against AMPA receptor by [3H]AMPA displacement.
The species entered for assay [4] is Mus musculus. As to the kind of experiment: The compound was tested for Mean effective dose which protects the mice against seizures induced by Maximum electroshock. The class given is functional.
For assay [5], the species on record is Mus musculus. Put plainly: Percent protection of the mice against seizures induced by Maximum electroshock, by the compound was determined. It is filed as functional.

As usually defined, the ED50 is the midpoint of the dose-response relation. A lower ED50 goes with an effect at a small dose. Usually Ki stands for a dissociation constant, usually derived from enzyme kinetics or from competition with a known ligand. Read a low Ki as a stronger hold on the target. Regarding `CCOC(=O)c1cccc(NC(=O)NCc2ccn(-c3cc4c(cc3C(F)(F)F)[nH]c(=O)c(=O)n4CC(=O)O)c2)c1`, the ED50 in the assay listed under Mus musculus [1] was 28.5 mg/kg; in the assay on Mus musculus [2], 2.9 mg/kg. The Ki on Glutamate NMDA receptor was more than 30000 nM; in assay [3], 4 nM.

Regarding `O=C(O)Cn1c(=O)c(=O)[nH]c2cc(C(F)(F)F)c(-n3ccc(C(=O)O)c3)cc21`, the ED50 in the assay filed under Mus musculus [1] was 2.4 mg/kg; in the assay on Mus musculus [2], 2.3 mg/kg. Moreover, the Ki on Glutamate NMDA receptor was more than 30000 nM; in assay [3], 66 nM.

As for `CCOC(=O)Cn1c(=O)c(=O)[nH]c2cc([N+](=O)[O-])c(-n3ccc(C(=O)O)c3)cc21`, the inhibition constant (Ki) in assay [3] came to 215 nM.

Turning to `NS(=O)(=O)c1cccc2c1c([N+](=O)[O-])cc1nc(O)c(O)nc12` [NBQX], in the assay listed under Mus musculus [4], the 50% effective dose (ED50) worked out at 46 mg/kg. Also, in the assay filed under Mus musculus [5], the Protection is given as 31%. The affinity on Glutamate NMDA receptor corresponds to a Ki of 33000 nM.

On to `CCOC(=O)c1ccc(NC(=O)NCc2ccn(-c3cc4c(cc3C(F)(F)F)[nH]c(=O)c(=O)n4CC(=O)O)c2)cc1`, for which the ED50 in the assay on Mus musculus [2] is 0.8 mg/kg. Moreover, the figures for the Ki (on Glutamate NMDA receptor; in assay [3]) were more than 30000 nM and 4 nM, respectively.

As to `O=C(O)Cn1c(=O)c(=O)[nH]c2cc([N+](=O)[O-])c(-n3ccc(C(=O)O)c3)cc21`, the ED50 turned out to be 2.4 mg/kg in the assay listed under Mus musculus [1] and 1.4 mg/kg in the assay with Mus musculus [2]. This compound had a Ki on Glutamate NMDA receptor of more than 30000 nM.

For `CCOC(=O)Cn1c(=O)c(=O)[nH]c2cc(C(F)(F)F)c(-n3ccc(C(=O)O)c3)cc21`, the inhibitory constant (Ki) at Glutamate NMDA receptor is more than 30000 nM; in assay [3] it was 1500 nM.

In the case of `O=c1[nH]c2cc(-n3ccnc3)c([N+](=O)[O-])cc2[nH]c1=O` [YM-90K], in the assay with Mus musculus [2], the ED50 amounted to 13 mg/kg. Also, the Ki on Glutamate NMDA receptor came to 7400 nM.

Turning to `O=C(O)Cn1c(=O)c(=O)[nH]c2cc(C(F)(F)F)c(-n3ccc(CNC(=O)Nc4ccc(C(=O)O)cc4)c3)cc21`, the ED50 came to 1.4 mg/kg in the assay filed under Mus musculus [1] and 0.27 mg/kg with Mus musculus [2]. Besides, the Ki on Glutamate NMDA receptor was more than 30000 nM; in assay [3], 7 nM.

As for `O=C(O)c1ccn(-c2cc3nc(O)c(O)nc3cc2[N+](=O)[O-])c1`, the 50% effective dose (ED50) in the assay on Mus musculus [2] was found to be 17 mg/kg. Besides, the Ki on Glutamate NMDA receptor is more than 30000 nM; in assay [3], 60 nM.

As to `CCOC(=O)c1ccc(NC(=O)NCc2ccn(-c3cc4nc(O)c(O)nc4cc3C(F)(F)F)c2)cc1`, in assay [3], the Ki was 450 nM. This counts as sub-micromolar.

With `O=C(NCc1ccn(-c2cc3nc(O)c(O)nc3cc2C(F)(F)F)c1)Nc1ccc(C(=O)O)cc1`, the ED50 in the assay with Mus musculus [2] was approximately 11 mg/kg; in the assay filed under Mus musculus [4], 46 mg/kg. The compound also gave a Protection in the assay listed under Mus musculus [5] of 0%. For the same compound, the figures for the Ki (at Glutamate NMDA receptor; in assay [3]) were more than 30000 nM and 54 nM, respectively.

`O=C(O)Cn1c(=O)c(=O)[nH]c2cc(C(F)(F)F)c(-n3ccc(CNC(=O)Nc4cccc(C(=O)O)c4)c3)cc21`: the ED50 in the assay listed under Mus musculus [1] was determined as 13.5 mg/kg; with Mus musculus [2], 3.5 mg/kg. For the same compound, the Ki at Glutamate NMDA receptor is more than 30000 nM; in assay [3] it was 20 nM.
